Data published in patent publication EP4647069A1, “DRUGS AND COMPOSITIONS FOR USE IN THE TREATMENT OF RETT SYNDROME” (UNIVERSITA' DEGLI STUDI DI TRIESTE, priority 2024, dated 2025).

What was measured:
[1] = system: MeCP2-KO mouse hippocampal neurons; test: Phenotypic neuronal atrophy screening in miniaturized 96-well cultures, treatment DIV 3 to DIV 6 (MAP2/NeuN, NeuriteQuant); assay type: cell-based; settings: for total dendritic length (TDL) / terminal branches (EP): individually or in combination; for minimal effective concentration: Mus musculus, Hippocampal neuron, individual drugs, DIV 3 to DIV 6, read-out: minimum effective concentration in the in vitro assays
Protocol: Three morphological parameters were measured: 1) the area of the neuronal cell body (soma), 2) the total dendritic length (TDL), 3) the number of dendritic endpoints (EP).
The Kruskall-Wallis test was also performed in this phase, in order to compare non-parametric data between more than two groups: *p <0.05, **p<0.01, ***p<0.001.
To quantify the effects of the interactions, the same morphological parameters used to test the individual drugs at DIV 6 were measured, namely total dendritic length (TDL) and the number of terminal branches (EP = Endpoints).

[2] = in vivo; cited from earlier work

## C=C1/C(=C\C=C2/CCC[C@]3(C)[C@@H]([C@H](C)/C=C/[C@@H](O)C4CC4)CC[C@@H]23)C[C@@H](O)C[C@@H]1O [calcipotriene]
[1]; 1 µM, DIV 3 to DIV 6 (fig. 5A, 5B)
  total dendritic length (TDL): no positive effect
[1]; 1 µM, DIV 3 to DIV 6 (fig. 5C, 5D)
  terminal branches (EP): no positive effect
[1]
  minimal effective concentration: 10 µM

## O=c1[nH]c(=O)n([C@H]2C[C@H](O)[C@@H](CO)O2)cc1I [idoxuridine]
[1]; 0.1 µM, DIV 3 to DIV 6 (fig. 6A, 6B)
  total dendritic length (TDL): no positive effect
[1]; 0.1 µM, DIV 3 to DIV 6 (fig. 6C, 6D)
  terminal branches (EP): no positive effect
[1]
  minimal effective concentration: 10 µM

## Cc1ccc(C(=O)c2cc(O)c(O)c([N+](=O)[O-])c2)cc1 [tolcapone]
[2]
  capabilities to penetrate the blood-brain barrier: excellent
  half-life: 2.9 h
